Results: ChEMBL document CHEMBL5137094, “Construction of Covalent Bisubstrate Inhibitor of Protein Kinase Reacting with Cysteine Residue at Substrate-Binding Site” (J Med Chem, 2022)
Each block holds one compound with its values, some of them ahead of it. Activity calls are given as the source filed them. The rule behind the calls is not given here.

What was measured:
[1] = biological target: T1, cAMP-dependent protein kinase catalytic subunit alpha (Homo sapiens, UniProt P17612); assay: Binding affinity to recombinant human spiked PKAC-alpha in human HeLa cells assessed as covalent compound-protein adduct formation by measuring multiple fluorescent band formation at 150 nM incubated for 1 hr by 5-TAMRA dye based Western blot analysis; format: cell-based
[2] = biological target: T1, cAMP-dependent protein kinase catalytic subunit alpha; assay: Binding affinity to recombinant human active PKAC-alpha assessed as compound-protein adduct formation by measuring formation of three bands at 1.5 uM incubated for 1 hr by 5-TAMRA dye based immunostaining analysis
[3] = biological target: cAMP-dependent protein kinase catalytic subunit beta (Homo sapiens) (UniProt P22694); assay: Binding affinity to recombinant full length human spiked PKAC-beta in human PC-3 cell lysates assessed as irreversible compound-protein adduct formation at 150 nM incubated for 1 hr by 5-TAMRA dye based Western blot analysis; format: subcellular
[4] = biological target: cAMP-dependent protein kinase catalytic subunit beta (Homo sapiens) (UniProt P22694); assay: Binding affinity to recombinant full length human spiked PKAC-beta in human PC-3 cell lysates assessed as irreversible compound-protein adduct formation by measuring remaining activity at 150 nM measured after 1 hr by […] immunostaining based Western blot analysis; format: subcellular
[5] = biological target: T1, cAMP-dependent protein kinase catalytic subunit alpha; assay: Binding affinity to recombinant human spiked PKAC-alpha in human HeLa cells assessed as covalent compound-protein adduct formation by measuring multiple fluorescent band formation at 1.5 uM incubated for 1 hr by 5-TAMRA dye based Western blot analysis; format: cell-based
[6] = biological target: T1, cAMP-dependent protein kinase catalytic subunit alpha; assay: Binding affinity to recombinant human spiked PKAC-alpha in human U2OS cell lysates assessed as covalent compound-protein adduct formation at 1.5 uM incubated for 1 hr in presence of GSH by 5-TAMRA dye based Western blot analysis; format: subcellular
[7] = biological target: T2, Aurora kinase A (Homo sapiens) (UniProt O14965); assay: (§1) Binding affinity to N-terminal 6His-tagged active recombinant full length human spiked Aurora A in human PC-3 cell lysates assessed as irreversible compound-protein adduct formation at 150 nM incubated for 1 hr by 5-TAMRA dye based Western blot analysis; format: subcellular
T2 sequence (whole entry): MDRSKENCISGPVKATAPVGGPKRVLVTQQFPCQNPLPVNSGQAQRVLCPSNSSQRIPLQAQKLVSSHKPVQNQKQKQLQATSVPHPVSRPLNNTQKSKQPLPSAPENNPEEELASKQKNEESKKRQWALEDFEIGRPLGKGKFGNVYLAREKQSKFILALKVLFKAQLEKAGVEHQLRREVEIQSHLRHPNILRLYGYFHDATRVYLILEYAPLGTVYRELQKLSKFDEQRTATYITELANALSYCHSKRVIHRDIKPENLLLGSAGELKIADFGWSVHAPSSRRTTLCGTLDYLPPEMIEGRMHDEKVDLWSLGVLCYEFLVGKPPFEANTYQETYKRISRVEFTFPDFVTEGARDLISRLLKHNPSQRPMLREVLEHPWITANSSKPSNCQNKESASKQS

[8] = biological target: T1, cAMP-dependent protein kinase catalytic subunit alpha; assay: Binding affinity to recombinant human spiked PKAC-alpha in human U2OS cell lysates assessed as covalent compound-protein adduct formation at 1.5 uM incubated for 1 hr in presence of PK inhibitor, staurosporin by 5-TAMRA dye based Western blot analysis; format: subcellular
[9] = biological target: T1, cAMP-dependent protein kinase catalytic subunit alpha; assay: Binding affinity to recombinant human spiked PKAC-alpha in human PC-3 cell lysates assessed as covalent compound-protein adduct formation at 15 nM incubated for 1 hr by 5-TAMRA dye based Western blot analysis; format: subcellular
[10] = biological target: T2, Aurora kinase A (Homo sapiens); assay: as §1, with “formation by measuring remaining activity” for “formation”, “Aurora A antibody immunostaining” for “5-TAMRA dye”; format: subcellular
[11] = tested on: RAC-gamma serine/threonine-protein kinase (Homo sapiens), Q9Y243 [S472D]; assay: (§2) Binding affinity to N-terminal 6His-tagged active recombinant human spiked Akt3 S472D mutant (117 to end residues) in human PC-3 cell lysates assessed as irreversible compound-protein adduct formation at 150 nM incubated for 1 hr by 5-TAMRA dye based Western blot analysis; format: subcellular
Sequence of RAC-gamma serine/threonine-protein kinase (Homo sapiens), Q9Y243 [S472D] (Q9Y243 whole entry S472D): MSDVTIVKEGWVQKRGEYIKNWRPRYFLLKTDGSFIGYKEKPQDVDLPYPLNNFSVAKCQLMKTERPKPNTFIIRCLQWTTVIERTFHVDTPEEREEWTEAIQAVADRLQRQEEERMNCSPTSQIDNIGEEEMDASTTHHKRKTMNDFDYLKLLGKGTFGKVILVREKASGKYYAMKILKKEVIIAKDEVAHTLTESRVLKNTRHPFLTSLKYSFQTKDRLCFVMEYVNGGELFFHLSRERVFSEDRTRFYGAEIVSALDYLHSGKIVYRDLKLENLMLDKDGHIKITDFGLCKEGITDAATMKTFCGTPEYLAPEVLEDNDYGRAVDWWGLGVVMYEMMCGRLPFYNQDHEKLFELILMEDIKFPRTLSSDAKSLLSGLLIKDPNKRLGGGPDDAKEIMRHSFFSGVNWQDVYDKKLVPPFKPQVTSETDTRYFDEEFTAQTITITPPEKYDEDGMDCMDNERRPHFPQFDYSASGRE

[12] = tested on: RAC-gamma serine/threonine-protein kinase (Homo sapiens), Q9Y243 [S472D]; assay: as §2, with “formation by measuring remaining activity” for “formation”, “Akt3 antibody immunostaining” for “5-TAMRA dye”; format: subcellular
[13] = biological target: T1, cAMP-dependent protein kinase catalytic subunit alpha; assay: Binding affinity to recombinant human spiked PKAC-alpha in human U2OS cell lysates assessed as covalent compound-protein adduct formation at 1.5 uM incubated for 1 hr by 5-TAMRA dye based Western blot analysis; format: subcellular
[14] = biological target: Ribosomal protein S6 kinase alpha-5 (Homo sapiens) (UniProt O75582); assay: Binding affinity to N-terminal 6His-tagged recombinant human spiked MSK1 (2 to end residues) in human PC-3 cell lysates assessed as irreversible compound-protein adduct formation at 150 nM incubated for 1 hr by 5-TAMRA dye based Western blot analysis; format: subcellular
Sequence of Ribosomal protein S6 kinase alpha-5 (Homo sapiens) (O75582 whole entry, looked up): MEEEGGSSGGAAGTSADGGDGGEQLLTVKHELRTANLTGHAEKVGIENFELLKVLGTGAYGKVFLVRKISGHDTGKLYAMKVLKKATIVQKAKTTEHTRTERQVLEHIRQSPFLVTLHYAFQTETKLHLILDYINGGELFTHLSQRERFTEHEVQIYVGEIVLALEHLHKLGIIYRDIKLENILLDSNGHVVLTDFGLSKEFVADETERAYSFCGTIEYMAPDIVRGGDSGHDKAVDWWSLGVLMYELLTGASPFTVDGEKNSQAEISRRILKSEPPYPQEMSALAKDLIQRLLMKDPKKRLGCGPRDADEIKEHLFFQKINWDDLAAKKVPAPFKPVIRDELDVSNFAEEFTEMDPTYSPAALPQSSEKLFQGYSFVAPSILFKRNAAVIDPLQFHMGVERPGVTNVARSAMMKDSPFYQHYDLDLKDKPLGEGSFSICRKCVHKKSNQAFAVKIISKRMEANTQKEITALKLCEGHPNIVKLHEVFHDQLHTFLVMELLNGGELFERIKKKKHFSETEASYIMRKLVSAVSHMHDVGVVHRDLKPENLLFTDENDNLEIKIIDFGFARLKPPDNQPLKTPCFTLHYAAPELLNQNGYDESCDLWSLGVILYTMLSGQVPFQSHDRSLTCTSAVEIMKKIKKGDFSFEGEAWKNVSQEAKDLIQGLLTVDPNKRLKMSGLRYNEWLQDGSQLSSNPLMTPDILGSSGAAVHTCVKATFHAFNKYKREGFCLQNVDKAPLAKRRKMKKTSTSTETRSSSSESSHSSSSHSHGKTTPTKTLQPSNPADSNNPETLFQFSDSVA

[15] = biological target: T1, cAMP-dependent protein kinase catalytic subunit alpha; assay: Inhibition of ARC-1063 fluorescent probe binding to recombinant human PKAC-alpha incubated for 1 hr by time-gated luminescence intensity based displacement assay
[16] = biological target: T2, Aurora kinase A (Homo sapiens); assay: Inhibition of N-terminal 6His-tagged active recombinant full length human Aurora A-mediated phosphorylation assessed as residual activity at 100 nM relative to control
[17] = biological target: T1, cAMP-dependent protein kinase catalytic subunit alpha; assay: Displacement of ARC-1063 fluorescent probe from recombinant human PKAC-alpha assessed as dissociation equilibrium constant preincubated for 1 hr followed by photoluminescent probe addition by time-gated luminescence intensity based assay
[18] = biological target: T1, cAMP-dependent protein kinase catalytic subunit alpha; assay: Displacement of ARC-1063 fluorescent probe from recombinant human PKAC-alpha assessed as dissociation half life preincubated for 1 hr followed by photoluminescent probe addition by time-gated luminescence intensity based assay
[19] = biological target: T1, cAMP-dependent protein kinase catalytic subunit alpha; assay: Inhibition of recombinant human PKAC-alpha assessed as residual activity at 0.1 uM in presence of ATP by radiometric filter-binding assay relative to control
[20] = biological target: T1, cAMP-dependent protein kinase catalytic subunit alpha; assay: Displacement of ARC-1063 fluorescent probe from recombinant human PKAC-alpha assessed as binding constant (kon) preincubated for 1 hr followed by photoluminescent probe addition by time-gated luminescence intensity based assay
[21] = biological target: Ribosomal protein S6 kinase alpha-5 (Homo sapiens) (UniProt O75582); assay: Inhibition of N-terminal 6His-tagged recombinant human spiked MSK1 (2 to end residues) assessed as residual activity relative to control
[22] = biological target: RAC-alpha serine/threonine-protein kinase (Homo sapiens) (UniProt P31749); assay: Inhibition of human PKBalpha assessed as residual activity at 0.1 uM in presence of ATP by radiometric filter-binding assay relative to control
Sequence of RAC-alpha serine/threonine-protein kinase (Homo sapiens) (P31749 whole entry): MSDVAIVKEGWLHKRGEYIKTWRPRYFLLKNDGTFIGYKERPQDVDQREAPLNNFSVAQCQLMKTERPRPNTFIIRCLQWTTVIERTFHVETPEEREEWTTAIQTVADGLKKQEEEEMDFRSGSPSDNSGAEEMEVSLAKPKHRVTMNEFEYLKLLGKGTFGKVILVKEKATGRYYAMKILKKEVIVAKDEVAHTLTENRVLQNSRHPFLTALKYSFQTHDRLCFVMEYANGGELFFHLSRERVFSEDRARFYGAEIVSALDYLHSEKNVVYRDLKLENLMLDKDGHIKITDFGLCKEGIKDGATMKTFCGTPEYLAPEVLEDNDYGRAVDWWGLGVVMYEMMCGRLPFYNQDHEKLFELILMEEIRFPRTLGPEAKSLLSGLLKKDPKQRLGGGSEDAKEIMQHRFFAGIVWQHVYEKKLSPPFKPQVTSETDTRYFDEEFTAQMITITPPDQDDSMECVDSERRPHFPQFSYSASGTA

[23] = biological target: RAC-beta serine/threonine-protein kinase (Homo sapiens) (UniProt P31751); assay: Inhibition of human PKB-beta assessed as residual activity at 0.1 uM in presence of ATP by radiometric filter-binding assay relative to control
Sequence of RAC-beta serine/threonine-protein kinase (Homo sapiens) (P31751 whole entry): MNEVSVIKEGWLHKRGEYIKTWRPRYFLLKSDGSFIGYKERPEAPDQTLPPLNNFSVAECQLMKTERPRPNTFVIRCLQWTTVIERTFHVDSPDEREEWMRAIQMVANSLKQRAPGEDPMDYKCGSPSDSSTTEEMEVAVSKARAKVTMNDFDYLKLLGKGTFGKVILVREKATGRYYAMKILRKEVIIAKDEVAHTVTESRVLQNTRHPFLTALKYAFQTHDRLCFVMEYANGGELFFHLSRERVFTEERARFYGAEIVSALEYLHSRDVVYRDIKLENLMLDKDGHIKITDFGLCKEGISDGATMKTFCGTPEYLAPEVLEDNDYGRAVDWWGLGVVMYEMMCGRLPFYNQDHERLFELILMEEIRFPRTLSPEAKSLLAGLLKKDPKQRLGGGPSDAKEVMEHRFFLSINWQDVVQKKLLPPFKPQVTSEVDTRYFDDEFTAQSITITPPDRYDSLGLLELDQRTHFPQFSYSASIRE

Homo sapiens = species: Homo sapiens; assay: Selectivity index, ratio of Kd for N-terminal 6His-tagged active recombinant human spiked Akt3 S472D mutant (117 to end residues) to Kd for human recombinant PKACalpha
[24] = biological target: Aurora kinase B (Homo sapiens) (UniProt Q96GD4); assay: Inhibition of N-terminal 6His-tagged active recombinant full length human Aurora B-mediated phosphorylation assessed as residual activity at 100 nM relative to control
Sequence of Aurora kinase B (Homo sapiens) (Q96GD4 whole entry, the tested form may be a part): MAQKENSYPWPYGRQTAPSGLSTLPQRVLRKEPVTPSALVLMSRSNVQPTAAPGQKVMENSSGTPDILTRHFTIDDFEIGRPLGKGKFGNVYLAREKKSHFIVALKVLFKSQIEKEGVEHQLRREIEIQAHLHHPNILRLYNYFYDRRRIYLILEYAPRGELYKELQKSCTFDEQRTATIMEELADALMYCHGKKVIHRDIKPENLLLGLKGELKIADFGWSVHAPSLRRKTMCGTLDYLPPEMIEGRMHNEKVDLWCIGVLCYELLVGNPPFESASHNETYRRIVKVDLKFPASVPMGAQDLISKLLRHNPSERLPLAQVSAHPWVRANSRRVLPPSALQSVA

[25] = biological target: Rho-associated protein kinase 2 (Homo sapiens) (UniProt O75116); assay: Inhibition of recombinant human GST-tagged ROCK-2 catalytic domain (1 to 552 residues) assessed as residual activity at 0.1 uM in presence of ATP by radiometric filter-binding assay relative to control
Sequence of Rho-associated protein kinase 2 (Homo sapiens) (O75116 whole entry, looked up, the tested form may be a part): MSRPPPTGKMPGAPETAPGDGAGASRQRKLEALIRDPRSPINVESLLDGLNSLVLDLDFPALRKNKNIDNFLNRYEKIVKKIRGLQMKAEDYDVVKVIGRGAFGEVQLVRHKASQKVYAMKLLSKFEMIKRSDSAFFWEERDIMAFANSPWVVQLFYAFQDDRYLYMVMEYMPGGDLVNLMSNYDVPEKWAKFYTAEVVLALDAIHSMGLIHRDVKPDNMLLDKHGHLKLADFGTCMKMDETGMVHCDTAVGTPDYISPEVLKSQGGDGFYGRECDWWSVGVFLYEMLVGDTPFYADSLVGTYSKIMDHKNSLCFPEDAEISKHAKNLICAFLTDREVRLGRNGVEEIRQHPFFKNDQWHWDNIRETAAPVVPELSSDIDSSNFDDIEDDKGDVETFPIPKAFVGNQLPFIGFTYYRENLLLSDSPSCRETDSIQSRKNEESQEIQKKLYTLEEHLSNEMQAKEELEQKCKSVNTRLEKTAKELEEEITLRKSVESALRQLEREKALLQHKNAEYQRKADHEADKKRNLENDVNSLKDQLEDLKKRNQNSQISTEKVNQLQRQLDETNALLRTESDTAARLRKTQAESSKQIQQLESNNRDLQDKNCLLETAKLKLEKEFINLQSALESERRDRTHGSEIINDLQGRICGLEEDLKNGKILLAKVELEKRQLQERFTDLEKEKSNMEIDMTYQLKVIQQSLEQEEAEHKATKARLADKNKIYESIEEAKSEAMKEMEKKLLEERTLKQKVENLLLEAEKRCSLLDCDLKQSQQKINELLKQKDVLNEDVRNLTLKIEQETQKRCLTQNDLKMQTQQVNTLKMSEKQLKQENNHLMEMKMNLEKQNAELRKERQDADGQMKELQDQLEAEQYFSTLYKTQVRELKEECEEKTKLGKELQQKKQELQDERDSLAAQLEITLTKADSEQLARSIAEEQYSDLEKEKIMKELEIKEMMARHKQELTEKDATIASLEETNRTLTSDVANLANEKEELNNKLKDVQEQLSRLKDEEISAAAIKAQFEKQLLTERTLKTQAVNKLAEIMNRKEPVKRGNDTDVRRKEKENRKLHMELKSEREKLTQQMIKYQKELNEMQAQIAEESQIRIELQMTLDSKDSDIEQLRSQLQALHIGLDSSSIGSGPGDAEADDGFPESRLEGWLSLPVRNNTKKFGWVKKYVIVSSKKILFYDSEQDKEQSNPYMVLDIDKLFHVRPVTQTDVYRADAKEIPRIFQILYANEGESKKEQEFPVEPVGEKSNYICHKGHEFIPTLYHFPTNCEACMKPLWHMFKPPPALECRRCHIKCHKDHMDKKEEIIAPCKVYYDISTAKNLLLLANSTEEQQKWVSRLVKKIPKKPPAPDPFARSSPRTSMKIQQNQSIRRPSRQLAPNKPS

[26] = biological target: T1, cAMP-dependent protein kinase catalytic subunit alpha; assay: Covalent inhibition of human recombinant PKAC-alpha assessed as inhibition constant
[27] = biological target: T1, cAMP-dependent protein kinase catalytic subunit alpha; assay: Binding affinity to human recombinant PKAC-alpha assessed as reduction in TGLI signal at 10 uM pretreated with compound followed by ARC-1063 fluorescent probe addition by time-gated luminescence intensity based displacement assay; conditions: time 60-480 min, TDE = time-dependent effect
[28] = biological target: T1, cAMP-dependent protein kinase catalytic subunit alpha; assay: Binding affinity to human recombinant PKAC-alpha assessed as inactivation constant measured upto 60 mins by Western blot analysis
[29] = biological target: T1, cAMP-dependent protein kinase catalytic subunit alpha; assay: Binding affinity to human recombinant PKAC-alpha assessed as inactivation constant incubated for 1 hr by time-gated luminescence intensity based displacement assay
[30] = biological target: T1, cAMP-dependent protein kinase catalytic subunit alpha; assay: Binding affinity to human recombinant PKACalpha assessed as compound-protein adduct formation by measuring half life at 30 degreeC
[31] = biological target: T1, cAMP-dependent protein kinase catalytic subunit alpha; assay: Irreversible inhibition of ARC-1063 fluorescent probe binding to recombinant human PKAC-alpha incubated for 22 hrs followed by probe addition at 20 nM and further incubated for 1 hr by time-gated luminescence intensity based displacement assay
[32] = biological target: T1, cAMP-dependent protein kinase catalytic subunit alpha; assay: Inhibition of ARC-1063 fluorescent probe binding to recombinant human PKAC-alpha incubated for 22 hrs by time-gated luminescence intensity based displacement assay

Activity [1]: Active
Activity [2]: Active
Activity [3]: Active
Activity [4]: Active
Activity [5]: Active
Activity [6]: Active
Activity [7]: Active
Activity [8]: Active
Activity [9]: Active
Activity [10]: Active
Activity [11]: Active
Activity [12]: Active
Activity [13]: Active
Activity [14]: Active
Structure (SMILES): CC[C@H](C)[C@H](NC(=O)CCC(=O)N[C@@H](CCCCNC(=O)[C@@H](CCCNC(=N)N)NC(=O)CCCCCCCC(=O)N1CCN(c2ncnc3[nH]ccc23)CC1)C(=O)N[C@H](CCCNC(=N)N)C(=O)N[C@H](CCCNC(=N)N)C(=O)N[C@H](CCCCNC(=O)c1ccc(-c2c3ccc(=[N+](C)C)cc-3oc3cc(N(C)C)ccc23)c(C(=O)O)c1)C(N)=O)C(=O)NCC(=O)CF

IC50 [15]: 24 nM
Activity [16]: 102%
Kd [17]: 0.019 nM
T1/2 [18]: 4.5 min
Activity [19]: 2%
K [20]: 1.4 10^8/M/s
Activity [21]: 21%
Activity [22]: 8%
Activity [23]: 9%
Ratio (Homo sapiens): 200
Activity [24]: 93%
Activity [25]: 8%
Structure (SMILES): CC[C@H](C)[C@H](NC(=O)CCC(=O)N[C@@H](CCCCNC(=O)[C@@H](CCCNC(=N)N)NC(=O)CCCCCCCC(=O)N1CCN(c2ncnc3[nH]ccc23)CC1)C(=O)N[C@H](CCCNC(=N)N)C(=O)N[C@H](CCCNC(=N)N)C(N)=O)C(=O)NCC(C)=O

Ki [26]: 0.0068 nM
Activity [27]: Tde
Kinact [28]: 4.2 10^-4/s
Kinact [29]: 5.1 10^-4/s
Structure (SMILES): CC[C@H](C)[C@H](NC(=O)CCC(=O)N[C@@H](CCCCNC(=O)[C@@H](CCCNC(=N)N)NC(=O)CCCCCCCC(=O)N1CCN(c2ncnc3[nH]ccc23)CC1)C(=O)N[C@H](CCCNC(=N)N)C(=O)N[C@H](CCCNC(=N)N)C(=O)N[C@H](CCCNC(=N)N)C(N)=O)C(=O)NCC(=O)CF

T1/2 [18]: > 150 min
Ki [26]: 4.2 nM
Activity [27]: Tde
Kinact [29]: 3.3 10^-5/s
T1/2 [30]: 346 min
Structure (SMILES): CC[C@H](C)[C@H](NC(=O)CCC(=O)N[C@@H](CCCCNC(=O)[C@@H](CCCNC(=N)N)NC(=O)CCCCCCCC(=O)N1CCN(c2ncnc3[nH]ccc23)CC1)C(N)=O)C(=O)NCC(=O)CF

IC50 [15]: 790 nM
Kd [17]: 0.63 nM
T1/2 [18]: 0.5 min
K [20]: 3.8 10^7/M/s
Structure (SMILES): CC[C@H](C)[C@H](NC(=O)CCC(=O)N[C@@H](CCCCNC(=O)[C@@H](CCCNC(=N)N)NC(=O)CCCCCCCC(=O)N1CCN(c2ncnc3[nH]ccc23)CC1)C(=O)N[C@H](CCCNC(=N)N)C(N)=O)C(=O)NCC(C)=O

IC50 [31]: 5300 nM
IC50 [15]: 400 nM
IC50 [32]: 500 nM
Structure (SMILES): N=C(N)NCCC[C@@H](NC(=O)CCCCCNC(=O)[C@@H](CCCNC(=N)N)NC(=O)CCCCCCCC(=O)N1CCN(c2ncnc3[nH]ccc23)CC1)C(N)=O
